# According to BindingDB's records for patent US20250091994 (Kobe University, 2025):
# Target: GTPase HRas [G12V] (Homo sapiens, UniProt P01112, G12V)
# Assay: In Vitro Ras-Raf Binding Inhibitory Activity Assay
# Procedure: The in vitro Ras-Raf binding inhibitory activity of the compound of the present invention was evaluated by an ELISA method described below. GST-c-Raf-1 RBD diluted with a Ras-Raf binding buffer (50 mM Tris-HCl pH7.4, 150 mM NaCl, 5 mM MgCl2, 1 mM EDTA, and 1% Triton-X100) was added to each well of a glutathione-coated 96-well plate (Thermo Fisher Scientific.), and was incubated at 30° C. for 1 hour, to immobilize Raf on the well. The unbound free Raf was eliminated by washing the well with the Ras-Raf binding buffer three times. Subsequently, GTPTS-bound HRasG12V diluted with the Ras-Raf binding buffer and each compound solution (final DMSO concentration: 10%) were applied to each well, and the resulting mixture was then incubated at 30° C. for 1 hour, so that Ras and Raf were allowed to bind to each other. Thereafter, the plate was washed with the Ras-Raf binding buffer twice, and was then subjected to a blocking treatment at room temperature for 20 minutes, using TBS-Tween {10 mM Tris-HCl pH 7.4, 150 mM NaCl, and 0.05% (w/v) Tween-20}-5% (w/v) bovine serum albumin (BSA). After that, an anti-HRas antibody (C-20, Santa Cruz) or an anti-HRas antibody (259, Santa Cruz), which had been 1000 times diluted with TBS-Tween-5% BSA, was added to the reaction mixture, and incubated at room temperature for 1 hours. After the treatment with the primary antibody, the plate was washed with TBS-Tween-5% BSA three times, and a horseradish peroxidase-labeled secondary antibody against rabbit immunoglobulin G (GE Healthcare) of 1000 times diluted with TBS-Tween-5% BSA, was added to the plate, followed by incubation at room temperature for 1 hour. After the treatment with the secondary antibody, the plate was washed with TBS-Tween-5% BSA three times, and a substrate solution (TMB) was then added to the plate, followed by incubation at room temperature for 15 minutes for coloration. Finally, 2 M H2SO4 was added to stop color development (coloration reaction kit: Nacalai Tesque).
# GTPase HRas [G12V], sequence (P01112 whole entry G12V, looked up): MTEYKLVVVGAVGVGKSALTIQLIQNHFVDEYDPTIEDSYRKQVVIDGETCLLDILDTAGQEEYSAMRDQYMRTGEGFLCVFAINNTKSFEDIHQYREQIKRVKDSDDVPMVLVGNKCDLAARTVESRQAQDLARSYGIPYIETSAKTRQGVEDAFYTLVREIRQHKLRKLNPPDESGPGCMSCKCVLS
row,SMILES,IC50
1,"CC(=O)N1/C(=C\c2ccc3c(-c4cnn(C)c4)c(C(=O)N4CCOCC4)ccc3n2)C(=O)c2ccccc21 [US20250091994, Example 199]",2100 nM
2,"CC(=O)N1CCc2cc(-c3c(C(=O)N4CCOCC4)ccc4nc(/C=C5/C(=O)c6ccccc6N5C(C)=O)ccc34)ccc2C1 [US20250091994, Example 200]",1000 nM
3,"CC(=O)N1CCc2ccc(-c3c(C(=O)N4CCOCC4)ccc4nc(/C=C5/C(=O)c6ccccc6N5C(C)=O)ccc34)cc2C1 [US20250091994, Example 201]",800 nM
4,"CC(=O)N1/C(=C\c2nc(-c3cnn(C)c3)c3ccccc3n2)C(=O)c2ccccc21 [US20250091994, Example 203]",600 nM
5,"CC(=O)N1C(=Cc2cc(C(=O)N3CCN(C4COC4)CC3)c3ccccc3n2)C(=O)c2ccccc21 [US20250091994, Example 204]",1800 nM
6,"CC(=O)N1C(=Cc2cc(-c3ccccc3-c3cnn(C)c3)c3cc(CNC4CCOCC4)ccc3n2)C(=O)c2ccccc21 [US20250091994, Example 206]",2000 nM
7,"CC(=O)N1CCc2c(cccc2-c2cc(/C=C3/C(=O)c4ccccc4N3C(C)=O)nc3ccc(CNC4CCOCC4)cc23)C1 [US20250091994, Example 207]",700 nM
8,"CC(=O)N1CCc2cc(-c3cc(/C=C4/C(=O)c5ccccc5N4C(C)=O)nc4ccc(CNC5CCOCC5)cc34)ccc2C1 [US20250091994, Example 209]",400 nM
9,"CC(=O)N1CCc2ccc(-c3cc(/C=C4/C(=O)c5ccccc5N4C(C)=O)nc4ccc(CNC5CCOCC5)cc34)cc2C1 [US20250091994, Example 211]",600 nM
